The numbers were not newly measured in US20260124292A1, “MU[…] INFLUENZA VACCINE” (priority 2022, published 2026), which cites them from elsewhere.

This data set deals with influenza A virus-specific CTL. The following applies: according to Boon et al. 2006.

Take CTELKLSDY [SEQ ID NO: 4]: the Immunodominance result is on record as “(Intermediate”. As to “ELRSRYWAI (listed as Alphainfluenzavirus influenzae) [SEQ ID NO: 2]”, the Immunodominance result was “(Intermediate”. Regarding “RRSGAAGAAVK (listed as Alphainfluenzavirus influenzae) [SEQ ID NO: 16]”, the Immunodominance result is listed as “(Highly”. For “SRYWAIRTR (listed as Alphainfluenzavirus influenzae) [SEQ ID NO: 3]”, the Immunodominance entry is listed as “(Highly”.
